Data: patent US8822440B2, “Inhibiting cyclin D polypeptides” (Mayo Foundation for Medical Education and Research, priority 2006, dated 2014)
“And” between values parts separate entries of the source, which are not always exact repeats. Equal entries are not always repeated. “Also recorded” adds a separate entry of the source.

Key:
CCND2 promoter = experiment: CCND2 promoter-luciferase transactivation assay in NIH3T3 cells with or without c-maf; assay type: cell-based, mouse
Method: Using this assay, Lopac (n=1280), Prestwick (n=1120), and Spectrum (n=2000) libraries of drugs and natural compounds were screened. In a parallel MTS assay, the effect of each compound on 3T3 viability was determined, allowing exclusion of compounds that caused secondary suppression of CCND2 due to non-specific cytotoxicity. […] These included monensin, patulin, β-lapachone, camptothecin, dihydrogambogic acid, gentian violet, thapsigargin, brefeldin A, pristimerin, and kinetin riboside.
Full-length c-maf cDNA was subcloned into an IRES-GFP MIEV retroviral vector and introduced into NIH3T3 cells by infection. Stable clones expressing GFP and c-maf were selected by flow cytometry and immunoblotting, respectively. The promoter of human cyclin D2 (−894 to −4; Brooks et al., J. Biol. Chem., 271, 9090-9 (1996)), containing c-maf responsive element sequence (MARE), was cloned from DNA from HeLa cells and inserted into the pGLbasic firefly luciferase vector (Promega, Madison, Wis.) immediately upstream of the luciferase gene. This construct was co-transfected with pcDNA3 (containing a neomycin resistance gene) into both NIH3T3 wild type cells and NIH3T3 cells stably over-expressing c-maf-IRES-GFP. Cells stably expressing c-maf, GFP, and luciferase were selected.
NIH3T3 cells stably expressing c-maf and the CCND2 promoter driving luciferase (13,000 cells per well) were plated in 96-well plates by a Biomek FX liquid handler (Beckman, Fullerton, Calif.). After the cells had adhered, they were treated with aliquots of molecules from LOPAC (Sigma, St. Louis, Mo.), Prestwick (Prestwick Chemical Inc, Illkirch, France) or Spectrum (Microsource Discovery Systems, Gaylordsville, Conn.) libraries of off-patent drugs and chemicals at a final concentration of ˜5 μM and <0.1% DMSO. Cells were incubated with compounds at 37° C. for 16 hours.
Luciferase assay. Luciferase activity was assessed according to the manufacturer's instructions (Promega, Madison, Wis.). Briefly, the cell culture medium was removed using an EMBLA plate washer (Molecular Devices, X) and Glo Lysis buffer (Promega) was added by robot. After a 10-minute incubation, an equal volume of Bright-Glo Luciferase substrate (Promega) was added, and luminescence signal was detected with a 96-well Luminoskan luminescence plate reader (Thermo Labsystem, Waltham, Mass.) using a 5 second integration.
Studies of kinetin riboside using 3T3-D2-luc cells. To examine CCND2 suppression induced by kinetin riboside, the reporter cells were exposed to kinetin riboside in combination with other drugs (all purchased from Sigma, St. Loius, Mo.) that influence CCND2 transcription or inhibit nucleoside transport or phosphorylation. NIH3T3 cells expressing the CCND2 promoter driving luciferase were incubated with kinetin riboside or vehicle control +/− forskolin, 4-(3-butoxy-4-methoxybenzyl)imidazolidin-2-one (BMBI), cantharadin, S-(4-Nitrobenzyl)-6-thioinosine (NBTI), or A-134974, as specified at 5 μM concentration for 16 hours at 37° C. […] Forskolin is a cell-permeable diterpenoid that activates adenylate cyclase resulting in increased cAMP concentration. BMBI (Sigma B8279) is an inhibitor of cAMP phosphodiesterase that also causes accumulation of cAMP. Cantharadin (C7632) is an inhibitor of protein phosphatase 2A and, from the library screen, mediates induction of CCND2. NBTI (Sigma N2255) is a potent adenosine uptake inhibitor, and A-134974 (Sigma A2846) is a selective inhibitor of adenosine kinase.
In an optimized automated assay, NIH3T3 cells over-expressing c-maf and the human cyclin D2 promoter driving luc were plated in 96-well plates by robot and following adhesion were treated for 16 hours with compounds at a final concentration of ˜5 μM and <0.1% DMSO. As a control, cells were treated with buffer alone. […] Thus, each compound from the library was tested in at least two assays—luciferase for CCND2 activity and MTS for viability. The coefficient of variance (CV) of the assay was <10%.

[1] = test system: human myeloma cell lines (HMCL); experiment: HMCL viability / cytotoxicity (MTT, MTS); assay type: cell-based; conditions: for IC50: Homo sapiens
Method: Subsequent validation studies using selected compounds in human myeloma cell lines (HMCL) confirmed successful suppression of both cyclin D2 and D1 polypeptides. Each of these compounds was then shown to be cytotoxic to a genetically diverse and standardized panel of 14 HMCL in MTT assays: monensin (10-760 nM), camptothecin (5-700 nM), dihydrogambogic acid (250-800 nM), pristimerin (150-500 nM), and kinetin riboside (2.5-20 μM). Cell cycle analysis confirmed induction of G0/G1 phase arrest for most compounds, consistent with cyclin D inhibition.
Viability assay. The effects of screened compounds on cell viability was assessed by 3-(4,5-dimethyl[…])-5-(3-carboxymethoxyphenyl)-2-(4-sulfophenyl)-2-H-tetrazolium (MTS) assay according to the manufacture's instructions (Progmega, Madison, Wis.). MTS reagent (20 μL/well in 96 well plates) was added to cells, and these were then incubated at 37° C. for 4 hours. Absorbance at 490 nm was determined using a 96-well plate reader.

HMCL = experiment: Cell cycle profiling of HMCL by flow cytometry; assay type: cell-based, human
Method: Cell cycle profiling. HMCL were incubated with drug or vehicle as indicated, washed and resuspended in 1 mL PBS. Ice cold ethanol was added dropwise to 75% with regular mixing, and suspensions were incubated at −20° C. for 1 hour. Cells were washed again with PBS and resuspended in 0.1 mL RNAse A (100 μg/mL) at room temperature for 5-10 minutes. Propidium iodide (200 μL×100 μg/mL) was added immediately prior to analysis by flow cytometry. Cellular aggregates were excluded using CellQuest Doublet Discriminator Module, and cell cycle profile was determined using ModFit LT Mac 3.1 SP2 (Verity Software House, TopSham, Me.).

For `OC[C@H]1O[C@@H](n2cnc3c(NCc4ccco4)ncnc32)[C@H](O)[C@@H]1O` [kinetin riboside, N6-Furfuryladenosine], the “time course of suppression of CCND2-driven luciferase” value (CCND2 promoter; NIH3T3) was “rapid suppression of CCND2 transactivation”, the “suppression of CCND2 promoter in absence or presence of c-maf” value (CCND2 promoter; NIH3T3 CCND2-luc with or without c-maf) was “c-maf independent specific suppression of the CCND2 promoter” and the “effect on BMBI-induced CCND2 transactivation” value (CCND2 promoter; co-incubation, 5 μM, 16 hours) was “effectively blocked”. The “effect on Forskolin-induced CCND2 transactivation” value (CCND2 promoter; co-incubation, 5 μM, 16 hours) was “blocked”, the “effect on cantharadin-induced CCND2 transactivation” value (CCND2 promoter; co-incubation, 5 μM, 16 hours) was “abolished” and the “identified as putative inhibitor of CCND2 transactivation (screen hit)” value (CCND2 promoter; ~5 μM, 16 hours, hit = 50% or more reduction in luciferase relative to cell viability) was “putative CCND2 inhibitors; also recorded: putative suppressors of CCND2”. The IC50 ([1]; 48 h, 8 out of 12 HMCL) was < 1.7 µg/mL and < 5 µM, the IC50 ([1]; 48 h, 11/12 HMCL) was < 5 µg/mL and < 15 µM and the IC50 ([1]; JJN-3, JJN3) was about 5 µM. For the same molecule, the IC50 ([1]; U-266, U266) was over 20 µM, the “cytotoxic concentration across panel of 14 HMCL” value ([1]; human) was 2.5 to 20 µM and the cell cycle profile (HMCL; H929 and U266, 10 μM, 20 hours) was “cell cycle arrest at G0/G1”. The “fall in proportion of cells entering S-phase” value (HMCL; all HMCL tested, 10 μM, within 20 hours) was 50-70%.
